{"source": "ChEMBL document CHEMBL3351476", "about": "“The discovery of I-BET726 (GSK1324726A), a potent tetrahydroquinoline ApoA1 up-regulator and selective BET bromodomain inhibitor” (J Med Chem, 2014)", "key": {"[1]": {"test_system": "HepG2", "assay": "Upregulation of ApoA1 in human HepG2 cells after 16 hrs by luciferase reporter assay relative to control", "assay_type": "functional"}, "[2]": {"biological_target": "CREB-binding protein (Homo sapiens, UniProt Q92793)", "sequence (Q92793 whole entry)": "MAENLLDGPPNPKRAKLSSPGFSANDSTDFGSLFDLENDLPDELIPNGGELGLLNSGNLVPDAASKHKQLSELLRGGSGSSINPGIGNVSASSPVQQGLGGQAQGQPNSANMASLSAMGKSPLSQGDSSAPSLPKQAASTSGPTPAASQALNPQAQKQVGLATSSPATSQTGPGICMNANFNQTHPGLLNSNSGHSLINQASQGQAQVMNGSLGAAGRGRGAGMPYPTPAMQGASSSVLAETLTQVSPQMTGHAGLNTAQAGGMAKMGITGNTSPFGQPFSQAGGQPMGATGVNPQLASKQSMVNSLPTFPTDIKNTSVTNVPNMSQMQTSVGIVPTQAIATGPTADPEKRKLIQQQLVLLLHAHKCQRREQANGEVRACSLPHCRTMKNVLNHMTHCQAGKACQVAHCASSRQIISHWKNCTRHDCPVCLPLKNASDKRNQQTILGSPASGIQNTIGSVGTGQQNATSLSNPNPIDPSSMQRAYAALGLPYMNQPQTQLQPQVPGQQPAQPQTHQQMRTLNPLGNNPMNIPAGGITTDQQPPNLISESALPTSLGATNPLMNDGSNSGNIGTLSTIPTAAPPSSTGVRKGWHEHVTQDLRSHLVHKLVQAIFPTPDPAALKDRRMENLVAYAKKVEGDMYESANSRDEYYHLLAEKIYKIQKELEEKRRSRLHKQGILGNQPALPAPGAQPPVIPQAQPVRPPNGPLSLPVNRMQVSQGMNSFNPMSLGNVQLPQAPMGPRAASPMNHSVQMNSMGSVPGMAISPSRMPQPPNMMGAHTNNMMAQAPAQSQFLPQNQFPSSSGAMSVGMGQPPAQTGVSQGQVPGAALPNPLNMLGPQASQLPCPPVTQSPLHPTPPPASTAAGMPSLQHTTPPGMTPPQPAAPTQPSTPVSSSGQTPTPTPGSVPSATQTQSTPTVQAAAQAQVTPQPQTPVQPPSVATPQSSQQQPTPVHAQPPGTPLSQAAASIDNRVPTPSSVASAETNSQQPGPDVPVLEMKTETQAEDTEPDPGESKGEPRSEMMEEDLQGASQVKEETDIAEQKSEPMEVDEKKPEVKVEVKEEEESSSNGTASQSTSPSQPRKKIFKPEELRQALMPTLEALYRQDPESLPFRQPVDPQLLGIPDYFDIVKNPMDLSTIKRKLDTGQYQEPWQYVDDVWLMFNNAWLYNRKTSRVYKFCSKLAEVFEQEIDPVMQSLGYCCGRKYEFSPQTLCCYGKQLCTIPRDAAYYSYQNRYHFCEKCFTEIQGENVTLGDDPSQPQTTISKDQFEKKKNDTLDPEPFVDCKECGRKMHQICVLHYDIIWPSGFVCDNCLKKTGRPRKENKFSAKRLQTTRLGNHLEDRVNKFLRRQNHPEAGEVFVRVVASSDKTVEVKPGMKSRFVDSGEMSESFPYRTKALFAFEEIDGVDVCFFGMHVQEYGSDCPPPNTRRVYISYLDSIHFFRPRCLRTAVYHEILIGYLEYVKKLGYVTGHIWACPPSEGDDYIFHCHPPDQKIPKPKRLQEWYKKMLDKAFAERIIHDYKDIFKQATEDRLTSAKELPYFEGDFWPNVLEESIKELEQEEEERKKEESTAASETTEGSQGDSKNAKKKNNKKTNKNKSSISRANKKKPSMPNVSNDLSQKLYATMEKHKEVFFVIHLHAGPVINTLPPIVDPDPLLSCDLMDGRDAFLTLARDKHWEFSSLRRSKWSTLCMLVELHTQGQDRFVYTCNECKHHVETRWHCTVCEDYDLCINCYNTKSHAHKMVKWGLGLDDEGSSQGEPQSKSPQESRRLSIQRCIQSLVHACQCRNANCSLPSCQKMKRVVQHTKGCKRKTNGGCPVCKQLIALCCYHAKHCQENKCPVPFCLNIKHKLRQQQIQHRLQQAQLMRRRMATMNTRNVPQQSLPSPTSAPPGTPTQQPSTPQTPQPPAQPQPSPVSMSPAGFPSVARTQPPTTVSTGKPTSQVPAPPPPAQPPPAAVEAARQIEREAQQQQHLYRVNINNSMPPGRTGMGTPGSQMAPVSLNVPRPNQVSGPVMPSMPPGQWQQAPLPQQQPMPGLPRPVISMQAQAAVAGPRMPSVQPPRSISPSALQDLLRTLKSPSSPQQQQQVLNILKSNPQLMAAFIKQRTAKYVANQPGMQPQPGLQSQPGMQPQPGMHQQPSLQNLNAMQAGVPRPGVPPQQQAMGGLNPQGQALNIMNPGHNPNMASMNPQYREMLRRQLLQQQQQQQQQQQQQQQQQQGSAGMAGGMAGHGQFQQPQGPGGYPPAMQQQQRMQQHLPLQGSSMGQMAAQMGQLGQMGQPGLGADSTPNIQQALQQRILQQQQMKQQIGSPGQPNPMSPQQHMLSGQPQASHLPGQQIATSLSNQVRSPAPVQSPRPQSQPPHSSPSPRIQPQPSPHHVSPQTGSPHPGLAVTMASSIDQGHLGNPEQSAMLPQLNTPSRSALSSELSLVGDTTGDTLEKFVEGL", "assay": "Inhibition of human CREBBP by BROMOscan assay"}, "[3]": {"biological_target": "Histone acetyltransferase p300 (Homo sapiens, UniProt Q09472)", "assay": "Inhibition of human EP300 by BROMOscan assay"}, "[4]": {"biological_target": "Cytochrome P450 2D6 (Homo sapiens, UniProt P10635)", "sequence (P10635 whole entry)": "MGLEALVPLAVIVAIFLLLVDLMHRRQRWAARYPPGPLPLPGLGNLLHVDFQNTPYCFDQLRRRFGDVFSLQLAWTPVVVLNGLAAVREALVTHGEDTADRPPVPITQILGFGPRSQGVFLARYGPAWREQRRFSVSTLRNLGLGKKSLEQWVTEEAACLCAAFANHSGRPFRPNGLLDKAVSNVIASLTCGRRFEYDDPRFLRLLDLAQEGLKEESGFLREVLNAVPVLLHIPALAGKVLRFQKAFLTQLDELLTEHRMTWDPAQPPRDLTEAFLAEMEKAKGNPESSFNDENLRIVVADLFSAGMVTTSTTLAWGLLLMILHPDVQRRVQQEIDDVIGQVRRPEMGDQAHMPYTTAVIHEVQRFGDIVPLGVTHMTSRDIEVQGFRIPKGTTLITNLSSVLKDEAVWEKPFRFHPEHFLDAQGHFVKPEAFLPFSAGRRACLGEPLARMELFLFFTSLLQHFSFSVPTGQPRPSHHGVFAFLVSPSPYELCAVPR", "assay": "Inhibition of recombinant human CYP2D6 expressed in Escherichia coli bactosomes using 4-methylaminomethyl-7-methoyxycoumarin as substrate after 10 mins by fluorescence assay", "assay_type": "ADME"}, "[5]": {"test_system": "Mus musculus", "assay": "Antiinflammatory activity in septic shock Balb/c mouse model assessed as mouse survival at 10 mg/kg, iv as single dose post LPS challenge measured after 5 days post treatment relative to vehicle-treated control", "assay_type": "functional", "settings": "120 h"}, "[6]": {"assay": "Terminal half life in Balb/c mouse at 10 mg/kg, iv as bolus dose", "assay_type": "ADME, organism-based", "design": "dose 10 mg/kg, route intravenous", "settings": "in vivo, read-out: beta t1/2 (converted)"}, "[7]": {"assay": "Terminal half life in rat at 1 mg/kg, iv as infusion", "assay_type": "ADME, organism-based", "design": "dose 1 mg/kg, route intravenous", "settings": "in vivo, read-out: beta t1/2"}, "[8]": {"biological_target": "Bromodomain-containing protein 7 (Homo sapiens, UniProt Q9NPI1)", "assay": "Inhibition of human BRD7 by BROMOscan assay"}, "[9]": {"biological_target": "Transcription intermediary factor 1-alpha (Homo sapiens, UniProt O15164)", "assay": "Inhibition of human TIF1alpha bromodomain by BROMOscan assay"}, "[10]": {"assay": "Fraction unbound in mouse blood by rapid equilibrium dialysis method", "assay_type": "ADME, tissue-based"}, "[11]": {"biological_target": "Bromodomain-containing protein 3 (Homo sapiens, UniProt Q15059)", "assay": "Inhibition of human BRD3 bromodomain 2 by BROMOscan assay"}, "[12]": {"assay": "Blood clearance in rat at 1 mg/kg, iv as infusion and 3 mg/kg, po", "assay_type": "ADME, organism-based", "settings": "whole blood"}, "[13]": {"biological_target": "Bromodomain adjacent to zinc finger domain protein 2A (Homo sapiens, UniProt Q9UIF9)", "assay": "Inhibition of human BAZ2A by BROMOscan assay"}, "[14]": {"biological_target": "Bromodomain and WD repeat-containing protein 1 (Homo sapiens, UniProt Q9NSI6)", "assay": "Inhibition of human WDR9 bromodomain 2 by BROMOscan assay"}, "[15]": {"biological_target": "Transcription initiation factor TFIID subunit 1-like (Homo sapiens, UniProt Q8IZX4)", "sequence (Q8IZX4 whole entry)": "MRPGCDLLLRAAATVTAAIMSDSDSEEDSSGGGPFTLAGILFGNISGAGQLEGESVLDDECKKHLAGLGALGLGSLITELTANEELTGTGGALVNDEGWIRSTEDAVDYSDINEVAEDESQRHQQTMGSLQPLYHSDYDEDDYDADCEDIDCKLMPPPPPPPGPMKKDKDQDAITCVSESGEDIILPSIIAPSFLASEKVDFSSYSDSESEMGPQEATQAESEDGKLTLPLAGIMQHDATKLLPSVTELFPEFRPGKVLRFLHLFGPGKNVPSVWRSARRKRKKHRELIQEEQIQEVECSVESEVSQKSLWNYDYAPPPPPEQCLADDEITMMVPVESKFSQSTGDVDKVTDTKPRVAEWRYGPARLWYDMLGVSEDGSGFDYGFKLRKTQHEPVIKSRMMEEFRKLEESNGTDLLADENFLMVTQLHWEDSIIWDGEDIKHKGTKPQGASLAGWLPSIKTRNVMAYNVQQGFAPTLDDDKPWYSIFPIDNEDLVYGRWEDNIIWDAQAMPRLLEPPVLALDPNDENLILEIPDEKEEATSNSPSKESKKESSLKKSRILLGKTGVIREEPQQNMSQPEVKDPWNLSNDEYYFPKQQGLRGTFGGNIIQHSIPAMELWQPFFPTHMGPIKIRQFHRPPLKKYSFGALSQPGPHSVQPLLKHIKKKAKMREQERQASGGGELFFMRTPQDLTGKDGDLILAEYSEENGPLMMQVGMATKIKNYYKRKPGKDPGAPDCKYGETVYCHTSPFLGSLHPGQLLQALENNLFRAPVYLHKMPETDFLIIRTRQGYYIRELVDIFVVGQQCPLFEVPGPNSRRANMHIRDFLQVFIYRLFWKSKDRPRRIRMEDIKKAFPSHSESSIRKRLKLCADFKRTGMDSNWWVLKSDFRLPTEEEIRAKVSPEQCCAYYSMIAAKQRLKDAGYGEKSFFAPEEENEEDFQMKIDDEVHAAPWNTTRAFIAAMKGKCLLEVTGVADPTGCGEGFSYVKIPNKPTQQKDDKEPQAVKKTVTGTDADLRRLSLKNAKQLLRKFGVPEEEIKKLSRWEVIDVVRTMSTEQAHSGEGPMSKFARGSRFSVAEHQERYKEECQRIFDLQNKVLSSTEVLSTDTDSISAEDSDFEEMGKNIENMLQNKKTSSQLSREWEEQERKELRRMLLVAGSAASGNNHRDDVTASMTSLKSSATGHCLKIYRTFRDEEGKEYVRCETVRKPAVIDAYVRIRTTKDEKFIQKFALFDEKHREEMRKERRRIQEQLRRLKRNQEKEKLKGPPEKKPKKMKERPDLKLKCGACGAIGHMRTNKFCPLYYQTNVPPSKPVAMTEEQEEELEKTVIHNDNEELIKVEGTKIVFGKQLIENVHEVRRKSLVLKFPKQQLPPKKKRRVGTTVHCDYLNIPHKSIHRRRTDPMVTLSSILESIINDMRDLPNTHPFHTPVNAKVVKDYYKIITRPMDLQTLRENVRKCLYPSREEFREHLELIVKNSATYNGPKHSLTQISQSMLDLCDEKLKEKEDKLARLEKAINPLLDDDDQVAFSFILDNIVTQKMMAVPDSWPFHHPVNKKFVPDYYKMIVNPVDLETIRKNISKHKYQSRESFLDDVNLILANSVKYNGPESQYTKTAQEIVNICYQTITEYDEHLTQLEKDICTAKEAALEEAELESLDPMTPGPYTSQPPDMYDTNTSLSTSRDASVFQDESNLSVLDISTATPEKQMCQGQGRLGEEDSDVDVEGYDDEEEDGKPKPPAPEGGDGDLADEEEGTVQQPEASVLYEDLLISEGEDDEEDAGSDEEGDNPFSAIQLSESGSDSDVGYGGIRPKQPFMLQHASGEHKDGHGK", "assay": "Inhibition of human TAF1L by BROMOscan assay"}, "[16]": {"biological_target": "Bromodomain-containing protein 1 (Homo sapiens, UniProt O95696)", "assay": "Inhibition of human BRD1 by BROMOscan assay"}, "[17]": {"biological_target": "Bromodomain-containing protein 2 (Homo sapiens, UniProt P25440)", "assay": "Inhibition of human BRD2 bromodomain 2 by BROMOscan assay"}, "[18]": {"assay": "Volume of distribution at steady state in beagle dog at 1 mg/kg, iv as infusion and 3 mg/kg, po", "assay_type": "ADME, organism-based, Canis lupus familiaris", "settings": "in vivo, read-out: Vdss"}, "[19]": {"test_system": "Hepatocyte", "assay": "Clearance in rat hepatocytes assessed per gram of tissue at 1 uM by LC-MS/MS analysis", "assay_type": "ADME, cell-based"}, "[20]": {"biological_target": "Nucleosome-remodeling factor subunit BPTF (Homo sapiens, UniProt Q12830)", "assay": "Inhibition of human BPTF by BROMOscan assay"}, "[21]": {"assay": "Blood clearance in Balb/c mouse at 10 mg/kg, iv as bolus dose", "assay_type": "ADME, organism-based", "design": "dose 10 mg/kg, route intravenous", "settings": "whole blood"}, "[22]": {"test_system": "PBMC", "assay": "Inhibition of LPS-induced IL6 production in human PBMC after 18 to 24 hrs by immunoassay", "assay_type": "functional, cell-based"}, "[23]": {"assay": "AUC (0 to t) in Cynomolgus monkey at 2 mg/kg, po", "assay_type": "ADME, organism-based, Macaca fascicularis", "design": "dose 2 mg/kg, route oral", "settings": "plasma"}, "[24]": {"biological_target": "SWI/SNF-related matrix-associated actin-dependent regulator of chromatin subfamily A member 2 (Homo sapiens, UniProt P51531)", "assay": "Inhibition of human SMARCA2 by BROMOscan assay"}, "[25]": {"assay": "Volume of distribution at steady state in Cynomolgus monkey at 1 mg/kg, iv as infusion and 3 mg/kg, po", "assay_type": "ADME, organism-based, Macaca fascicularis", "settings": "in vivo, read-out: Vdss"}}, "data": [{"smiles": "CC(=O)N1c2ccc(-c3ccc(C(=O)O)cc3)cc2[C@H](Nc2ccc(Cl)cc2)C[C@@H]1C", "values": [{"measurement": "pEC170", "setting": "[1]", "value": 8.1}, {"measurement": "IC50", "setting": "[2]", "value": 31.6, "unit": "µM"}, {"measurement": "IC50", "setting": "[3]", "value": 31.6, "unit": "µM"}, {"measurement": "IC50", "setting": "[4]", "value": "> 33", "unit": "µM"}, {"measurement": "survival at 10 mg/kg", "setting": "[5]", "value": 56, "unit": "%"}, {"measurement": "half-life", "setting": "[6]", "value": 3.6, "unit": "h"}, {"measurement": "half-life", "setting": "[7]", "value": "> 8", "unit": "h"}, {"measurement": "IC50", "setting": "[8]", "value": "> 0.00126", "unit": "µM"}, {"measurement": "IC50", "setting": "[9]", "value": 10, "unit": "µM"}, {"measurement": "fraction unbound", "setting": "[10]", "value": 0.013}, {"measurement": "IC50", "setting": "[11]", "value": 0.002, "unit": "µM"}, {"measurement": "clearance", "setting": "[12]", "value": 26, "unit": "mL/min/kg"}, {"measurement": "IC50", "setting": "[13]", "value": "> 31.6", "unit": "µM"}, {"measurement": "IC50", "setting": "[14]", "value": 31.6, "unit": "µM"}, {"measurement": "IC50", "setting": "[15]", "value": 31.6, "unit": "µM"}, {"measurement": "IC50", "setting": "[16]", "value": "> 20", "unit": "µM"}, {"measurement": "IC50", "setting": "[17]", "value": 0.00316, "unit": "µM"}, {"measurement": "Vd", "setting": "[18]", "value": 0.8, "unit": "L/kg"}, {"measurement": "CLH", "setting": "[19]", "value": "< 0.85", "unit": "mL/min/g"}, {"measurement": "IC50", "setting": "[20]", "value": "> 31.6", "unit": "µM"}, {"measurement": "clearance", "setting": "[21]", "value": 3.1, "unit": "mL/min/kg"}, {"measurement": "IC50", "setting": "[22]", "value": 0.0501, "unit": "µM"}, {"measurement": "AUC(0-t)", "setting": "[23]", "value": 11000, "unit": "ng·h/mL"}, {"measurement": "IC50", "setting": "[24]", "value": "> 31.6", "unit": "µM"}, {"measurement": "Vd", "setting": "[25]", "value": 1, "unit": "L/kg"}]}]}
